Results taken from patent US6770787B2, “Heavier halogen atom substituted squaraine based dyes, process for the preparation thereof and use thereof as sensitizers for photodynamic, therapeutical and industrial applications” (priority 2001, dated 2004).
Like-named read-outs stand apart in the source and are kept apart here.

What was measured:
AS52 cells [1] = assay: induction of micronuclei; assay type: cell-based
Protocol: Further to understand the genetic effects, the micronuclei induced by bis(3,5-dibromo-2,4,6-trihydroxyphenyl)squaraine and bis(3,5-diiodo-2,4,6-trihydroxyphenyl)squaraine were also quantified in AS52 cells. AS52 cells were exposed to squaraines as described above and resuspended in full medium. After incubation for 24 h at 39° C., approximately 1×10^5 cells were fixed on a microscope slide by cytospin-centrifugation and treatment with methanol for 1 h at −21° C. After staining with bisbenzimide for 3 min in PBS (without Ca2+ and Mg2+), 2000 cells were examined for the presence of micronuclei with a fluorescent microscope.

[2] = stability under irradiation conditions (photobleaching) in buffer; assay type: physicochemical; details: for Absorbance: 1000 W halogen lamp; for photobleaching: within 5 min of irradiation, buffer pH 7.4
Protocol: (§1) The information about the stability of the sensitizer in presence and absence of light is important for its practical use. Therefore, the stability of these dyes in presence and absence of light in ethanol and phosphate buffer at physiological pH conditions (pH 7.4) at 25° C. was studied by following the absorbance change using spectrophotometry. The results of change in absorbance vs time in the dark with representative squaraine based dyes bis(3,5-dibromo-2,4,6-trihydroxyphenyl)squaraine and bis(3,5-diiodo-2,4,6-trihydroxyphenyl)squaraine are shown in TABLE 3.
Compound bis(3,5-diiodo-2,4,6-trihydroxyphenyl)squaraine undergoes very fast photobleaching (nearly 50% within 5 min of irradiation), when compared to bis(3,5-dibromo-2,4,6-trihydroxyphenyl)squaraine (25%). The photobleaching was increased with the time of irradiation in both the cases. While photobleaching might be thought to be disadvantageous property in a tumor photosensitizer, but it has potential benefits since dosage can be adjusted to keep the photosensitizer in tumor at effective levels. Moreover because of their fast photobleaching, a patient after the photodynamic treatment is not required to stay in the dark for long periods of time and if required therapy can be repeated frequently with short intervals of time.

AS52 cells [3] = assay: cell killing efficiency (cytotoxicity) with and without light; assay type: cell-based; details: for cytotoxicity (cell survival): in the dark; for cell killing efficiency (% of cell survival): under illumination conditions, increasing concentration
Protocol: To measure the cell killing efficiency (cytotoxicity) of squaraine based sensitizers with and without light, AS52 cells were exposed to various concentrations of sensitizer. The light exposure was carried out from a 1000 W halogen lamp at a distance of 33 cm in Ca^2+ and Mg^2+ free PBS (140 mM NaCl, 3 mM KCl, 8 mM Na2HPO4, pH 7.4) on ice (10^6 cells/ml). […] The cells were pelleted by centrifugation and resuspended in PBSG three times. The cells were resuspended at 3×10^4 cells/ml in fresh medium at 37° C. and the number of cells were counted repeatedly for 60 h. From the exponential part of the growth curves (between 24 and 60 h), the number of poliferating cells at the time of resuspension was calculated by extrapolation. Cell survival was defined as the ratio between proliferating and resuspended cells.

[4] = solubility at physiological pH; details: physiological pH conditions
PM2 DNA [5] = assay: plasmid DNA cleavage (DNA relaxation assay, single strand breaks) by dye plus light; assay type: biochemical; details: SSB in phosphate buffer pH 7.4 without additive = 100%
PM2 DNA [6] = assay: as above; assay type: biochemical; details: for Relative number of single strand breaks (%): SSB in phosphate buffer pH 7.4 without additive = 100%; for fold enhancement in the cleavage of DNA: in D2O
Description: The mechanism of in vitro photodynamic activity of squaraines has been evaluated in detail by using plasmid DNA (PM2 DNA) and investigating the cleavage of DNA under a variety of conditions. Cleavage of DNA cleavage was followed by monitoring the conversion of supercoiled (Form I) to open circular (Form II) and linear forms (Form III). Induction of one single strand break by a compound/agent converts Form I to Form II and the quantification of these forms by DNA relaxation assay as described previously (Epe, B.; Hegler, J. J. Methods Enzymol. 1994, 234, 122) indicates its efficiency of DNA cleavage. Plasmid DNA cleavage is a very sensitive technique, which can be used to test the various properties of sensitizers and the DNA damage profiles obtained by using scavengers and activators can serve as a kind of fingerprint of the species directly responsible for the damage and also provide the information on the mechanism of in vitro photodynamic activity.
PM2 DNA (10,000 bp, 10 μg/mL) exposed to squaraine dyes plus light from a 1000 W halogen lamp (Philips PF811) at a distance of 33 cm in phosphate buffer (5 mM KH2PO4, 50 mM NaCl, pH 7.4) on ice. The modified DNA was precipitated by ethanol/sodium acetate and quantified the single strand breaks (SSB) by DNA relaxation assay. Superoxide dismutase (SOD) (20 μg/ml), catalase (315 U/ml) were added or the H2O in the buffer was replaced by D2O (the final isotope purity was greater than 96%) to have a better understanding of the active species involved. The results of these studies with representative squaraine based dyes bis(3,5-dibromo-2,4,6-trihydroxyphenyl)squaraine and bis(3,5-diiodo-2,4,6-trihydroxyphenyl)squaraine are shown in TABLE 2.

AS52 cells [7] = assay: mutagenicity, gpt locus, 6-thioguanine resistant cells; assay type: cell-based
Protocol: The mutagenic properties of squaraine based sensitizers was measured in AS52 cells, which carry the bacterial guanine phosphoribosyltraiisferase (gpt) gene as a selection marker that confers sensitivity to 6-thioguanine. AS52 cells were cultured in cleansing medium containing 11 μg/ml xanthine 219 μg/ml xanthine, 22 μg/ml adenine, 1.2 μg/ml aminopterin and 8.8 μg/ml mycophenolic acid) for one week to eliminate spontaneous gpt mutants. […] During this time, exponential growth of cells was maintained. 2×10^5 cells were diluted in 10 ml culture medium and plated in petri dishes (94 mm) After 2 h, 6-thioguanine was added to each plate (final concentration 2.5 μg/ml) for selection. 200 cells were added in 5 ml culture medium and plated in petri dishes (60 mm) to determine the cloning efficiencies. The plates were incubated for 7 to 9 days. The medium was replaced by NaCl solution (0.9% v/v), the cell colonies were fixed with methanol (−20° C.) for 15 min and stained with Giemsa (10% in H2O) for 15 min. The subsequent quantification of 6-thioguanine resistant cells and the determination of cytotoxicity (ratio of the plating efficiences of treated and untreated cells) directly after exposure to squaraines plus light carried out according to the protocol (Tindall, K. R.; Stankowski Jr. L. F.; Machanoff, R.; Hsie, A. W. Mutat. Res. 1986, 160, 121-131).

[8] = photosensitized singlet oxygen generation in presence and absence of polyvinylpyrrolidone; assay type: physicochemical
Description: Because triplet excited states were the major transient intermediates obtained upon 532 nm laser flash photolysis studies of bis(3,5-dibromo-2,4,6-trihydroxyphenyl)squaraine and bis(3,5-diiodo-2,4,6-trihydroxyphenyl)squaraine, the efficiency of photosensitized singlet oxygen generation by these systems have been examined, since singlet oxygen is the main cytotoxic agent of the type II reactions in photodynamic therapy. Since singly deprotonated forms of bis(3,5-dibromo-2,4,6-trihydroxyphenyl)squaraine and bis(3,5-diiodo-2,4,6-trihydroxyphenyl)squaraine, have significant triplet yields and have long lifetimes (Ramaiah, D; Joy, A.; Chandrasekhar, N; Eldho, N. V.; Das, S.; George, M. V. Photochem. Photobiol. 1997, 65, 783), moreover these are the forms that are expected to be the predominant species under the biological pH conditions (around 7.4). The first level characterization of these dyes for using them as sensitizers in photodynamic therapy, we have investigated their efficiency of singlet oxygen generation in presence of drug carriers, membrane mimics and microheterogeneous media. Results obtained in presence of polyvinylpyrrolidone (PVP) using bis(3,5-dibromo-2,4,6-trihydroxyphenyl)squaraine and bis(3,5-diiodo-2,4,6-trihydroxyphenyl)squaraine are shown in TABLE 1.

[9] = stability in the dark in ethanol and phosphate buffer (absorbance change); assay type: physicochemical; details: for Absorbance: 25° C.
Protocol: as §1

[10] = buffer pH 7.4, irradiation time 0 min
[11] = buffer pH 7.4, irradiation time 5 min
[12] = buffer pH 7.4, irradiation time 10 min
[13] = buffer pH 7.4, irradiation time 15 min
[14] = buffer pH 7.4, irradiation time 20 min
[15] = buffer pH 7.4, irradiation time 30 min

## O=C1C(Br)=C(O)C(=C2C(=O)C(c3c(O)c(Br)c(O)c(Br)c3O)=C2O)C(O)=C1Br [bis(3,5-dibromo-2,4,6-trihydroxyphenyl)squaraine]
AS52 cells [1]
  induction of micronuclei: do not induce significant amounts of micronuclei
[2]; [10]
  Absorbance: 1.8
[2]; [11]
  Absorbance: 1.35
[2]; [12]
  Absorbance: 1.30
[2]; [13]
  Absorbance: 1.25
[2]; [14]
  Absorbance: 1.17
[2]; [15]
  Absorbance: 1.10
[2]
  photobleaching: 25%
AS52 cells [3]
  cytotoxicity (cell survival): no significant effect
  cell killing efficiency (% of cell survival): high cell killing efficiency
[4]
  solubility: good solubility
PM2 DNA [5]; PH 7.8
  Relative number of single strand breaks (%): 105 ± 4%
PM2 DNA [5]; pH 7.0
  Relative number of single strand breaks (%): 127 ± 12%
PM2 DNA [6]; Catalase (315 U/mL)
  Relative number of single strand breaks (%): 115 ± 5%
PM2 DNA [6]; D2O Buffer
  Relative number of single strand breaks (%): 526 ± 28%
PM2 DNA [6]; SOD (20 g/mL)
  Relative number of single strand breaks (%): 109 ± 5%
PM2 DNA [6]
  fold enhancement in the cleavage of DNA: Nearly five
AS52 cells [7]
  induction of mutations (6-thioguanine resistant cells): do not induce immediate mutations
[8]; PVP 0 mM
  singlet oxygen quantum yields: 0.13 ± 0.005
[8]; PVP 14 mM
  singlet oxygen quantum yields: 0.29 ± 0.001
[9]
  stability in the dark: very stable
[9]; buffer pH 7.4, dark, 0 min
  Absorbance: 1.84
[9]; buffer pH 7.4, dark, 30 min
  Absorbance: 1.72
[9]; buffer pH 7.4, dark, 60 min
  Absorbance: 1.65
[9]; buffer pH 7.4, dark, 90 min
  Absorbance: 1.61
[9]; ethanol, dark, 0 min
  Absorbance: 1.90
[9]; ethanol, dark, 30 min
  Absorbance: 1.88
[9]; ethanol, dark, 60 min
  Absorbance: 1.88
[9]; ethanol, dark, 90 min
  Absorbance: 1.88

## O=C1C(I)=C(O)C(=C2C(=O)C(c3c(O)c(I)c(O)c(I)c3O)=C2O)C(O)=C1I [bis(3,5-diiodo-2,4,6-trihydroxyphenyl)squaraine]
AS52 cells [1]; in presence and absence of light, 24 h incubation
  induction of micronuclei: do not induce significant amounts of micronuclei
[2]; [10]
  Absorbance: 1.72
[2]; [11]
  Absorbance: 0.87
[2]; [12]
  Absorbance: 0.74
[2]; [13]
  Absorbance: 0.65
[2]; [14]
  Absorbance: 0.58
[2]; [15]
  Absorbance: 0.47
[2]
  photobleaching: ~50%
AS52 cells [3]
  cytotoxicity (cell survival): no significant effect
  cell killing efficiency (% of cell survival): high cell killing efficiency
[4]
  solubility: good solubility
PM2 DNA [5]; PH 7.8
  Relative number of single strand breaks (%): 109 ± 22%
PM2 DNA [5]; pH 7.0
  Relative number of single strand breaks (%): 134 ± 9%
PM2 DNA [6]; Catalase (315 U/mL)
  Relative number of single strand breaks (%): 92 ± 6%
PM2 DNA [6]; D2O Buffer
  Relative number of single strand breaks (%): 614 ± 97%
PM2 DNA [6]; SOD (20 g/mL)
  Relative number of single strand breaks (%): 100 ± 2%
PM2 DNA [6]
  fold enhancement in the cleavage of DNA: six fold
AS52 cells [7]; in presence and absence of light
  induction of mutations (6-thioguanine resistant cells): do not induce immediate mutations
AS52 cells [7]; in presence of light
  cytotoxicity (ratio of plating efficiencies): severe cytotoxicity
[8]; PVP 0 mM
  singlet oxygen quantum yields: 0.47 ± 0.017
[8]; PVP 14 mM
  singlet oxygen quantum yields: 0.62 ± 0.007
[8]; in microheterogeneous media compared with methanol
  increase in efficiency of singlet oxygen generation: ~15%
[9]; buffer pH 7.4, dark, 0 min
  Absorbance: 1.35
[9]; buffer pH 7.4, dark, 30 min
  Absorbance: 1.47
[9]; buffer pH 7.4, dark, 60 min
  Absorbance: 1.38
[9]; buffer pH 7.4, dark, 90 min
  Absorbance: 1.36
[9]; buffer solutions at pH 7.4, 90 min
  stability in the dark: slight bleaching
[9]; ethanol
  stability in the dark: very stable
